From paper PMC2782911 (Cancer, 2009)
Where two headings read alike, the source gives them in different places.

Assays:
[1] = biological target: T1, human SLC5A8 (Homo sapiens, UniProt Q8N695); test: Inhibition of [14C]nicotinate uptake via human SLC5A8 expressed in HRPE cells; assay type: cell-based
T1 sequence (Q8N695 1-610): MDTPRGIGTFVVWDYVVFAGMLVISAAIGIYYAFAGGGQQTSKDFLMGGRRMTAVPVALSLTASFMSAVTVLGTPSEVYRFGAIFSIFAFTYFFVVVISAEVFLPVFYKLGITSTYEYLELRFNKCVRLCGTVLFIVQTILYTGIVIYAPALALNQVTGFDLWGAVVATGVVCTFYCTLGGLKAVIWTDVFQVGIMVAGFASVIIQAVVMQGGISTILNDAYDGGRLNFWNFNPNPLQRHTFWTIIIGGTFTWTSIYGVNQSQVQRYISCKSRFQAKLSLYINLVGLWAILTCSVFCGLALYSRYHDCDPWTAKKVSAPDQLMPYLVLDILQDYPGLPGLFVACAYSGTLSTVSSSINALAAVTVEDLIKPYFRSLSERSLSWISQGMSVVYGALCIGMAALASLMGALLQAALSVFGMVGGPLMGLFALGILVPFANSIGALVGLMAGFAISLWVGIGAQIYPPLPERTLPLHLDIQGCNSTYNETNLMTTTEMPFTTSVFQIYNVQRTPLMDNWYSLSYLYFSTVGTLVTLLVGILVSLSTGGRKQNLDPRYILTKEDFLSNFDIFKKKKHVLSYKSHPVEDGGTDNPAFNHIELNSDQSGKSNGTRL

[2] = biological target: T1, human SLC5A8; test: Substrate-induced currents in X. laevis oocytes expressing human SLC5A8; assay type: cell-based; conditions: for inward currents in SLC5A8-expressing oocytes: 1 mM compound, in the presence of NaCl, not detectable in absence of Na+, -50 mV; for K0.5 (substrate concentration for half-maximal current): saturation kinetics of substrate-induced currents, human SLC5A8 oocytes
[3] = biological target: recombinant human HDAC1 (Homo sapiens, UniProt Q13547); test: Recombinant human HDAC1 activity assay; assay type: biochemical; conditions: for inhibition of HDAC1: 1 mM, recombinant human isoform
Chain of recombinant human HDAC1 (Q13547 whole entry, canonical isoform): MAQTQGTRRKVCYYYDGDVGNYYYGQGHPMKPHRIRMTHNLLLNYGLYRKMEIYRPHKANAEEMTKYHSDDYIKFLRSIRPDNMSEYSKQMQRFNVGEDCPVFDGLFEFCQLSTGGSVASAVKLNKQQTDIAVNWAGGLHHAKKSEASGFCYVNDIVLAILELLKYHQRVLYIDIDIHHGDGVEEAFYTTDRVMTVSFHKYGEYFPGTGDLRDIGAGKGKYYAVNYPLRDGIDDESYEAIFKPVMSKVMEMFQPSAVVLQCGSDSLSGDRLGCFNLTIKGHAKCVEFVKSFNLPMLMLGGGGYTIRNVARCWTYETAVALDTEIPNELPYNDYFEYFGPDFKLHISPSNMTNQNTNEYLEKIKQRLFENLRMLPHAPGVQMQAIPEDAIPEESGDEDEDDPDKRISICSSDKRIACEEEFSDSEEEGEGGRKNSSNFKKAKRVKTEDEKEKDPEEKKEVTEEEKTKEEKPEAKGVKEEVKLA

[4] = biological target: recombinant human HDAC3 (Homo sapiens, UniProt O15379); test: Recombinant human HDAC3 activity assay; assay type: biochemical; conditions: for inhibition of HDAC3: 1 mM, recombinant human isoform
Chain of recombinant human HDAC3 (O15379 whole entry, canonical isoform): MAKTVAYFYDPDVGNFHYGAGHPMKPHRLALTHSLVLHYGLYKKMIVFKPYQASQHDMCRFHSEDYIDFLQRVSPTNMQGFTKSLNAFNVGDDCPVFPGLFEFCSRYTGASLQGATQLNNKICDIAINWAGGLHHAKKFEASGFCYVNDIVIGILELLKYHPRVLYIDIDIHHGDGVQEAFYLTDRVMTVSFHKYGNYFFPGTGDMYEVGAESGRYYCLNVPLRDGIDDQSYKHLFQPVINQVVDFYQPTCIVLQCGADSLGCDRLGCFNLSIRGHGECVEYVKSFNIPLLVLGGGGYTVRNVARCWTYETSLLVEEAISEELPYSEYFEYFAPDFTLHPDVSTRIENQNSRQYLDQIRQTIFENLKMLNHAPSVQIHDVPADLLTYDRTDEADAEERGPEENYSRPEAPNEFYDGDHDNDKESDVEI
Chain of recombinant human HDAC3 (Q9Y618 395-489 partner limits assumed): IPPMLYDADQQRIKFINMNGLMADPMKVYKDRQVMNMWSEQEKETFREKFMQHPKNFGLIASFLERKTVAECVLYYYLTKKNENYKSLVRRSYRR

[5] = biological target: recombinant human HDAC2 (Homo sapiens, UniProt Q92769); test: Recombinant human HDAC2 activity assay; assay type: biochemical; conditions: 1 mM, recombinant human isoform
Chain of recombinant human HDAC2 (Q92769 whole entry, canonical isoform): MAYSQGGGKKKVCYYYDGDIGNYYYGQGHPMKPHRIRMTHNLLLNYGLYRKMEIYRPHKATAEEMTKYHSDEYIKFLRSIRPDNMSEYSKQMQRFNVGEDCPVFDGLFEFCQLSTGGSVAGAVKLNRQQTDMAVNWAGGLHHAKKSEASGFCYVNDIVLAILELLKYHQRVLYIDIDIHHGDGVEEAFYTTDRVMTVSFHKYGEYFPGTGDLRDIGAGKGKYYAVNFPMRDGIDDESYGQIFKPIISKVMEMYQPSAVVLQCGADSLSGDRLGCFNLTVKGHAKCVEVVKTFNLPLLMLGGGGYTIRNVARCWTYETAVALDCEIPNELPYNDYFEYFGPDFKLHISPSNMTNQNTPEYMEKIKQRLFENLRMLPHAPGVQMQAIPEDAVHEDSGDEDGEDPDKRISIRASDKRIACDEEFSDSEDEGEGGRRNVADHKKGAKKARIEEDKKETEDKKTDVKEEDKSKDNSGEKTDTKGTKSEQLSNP

[6] = biological target: T2, recombinant human HDAC6 (Homo sapiens, UniProt Q9UBN7); test: Recombinant human HDAC6 activity assay; assay type: biochemical; conditions: 1 mM, recombinant human isoform
T2 sequence (Q9UBN7 1-1215): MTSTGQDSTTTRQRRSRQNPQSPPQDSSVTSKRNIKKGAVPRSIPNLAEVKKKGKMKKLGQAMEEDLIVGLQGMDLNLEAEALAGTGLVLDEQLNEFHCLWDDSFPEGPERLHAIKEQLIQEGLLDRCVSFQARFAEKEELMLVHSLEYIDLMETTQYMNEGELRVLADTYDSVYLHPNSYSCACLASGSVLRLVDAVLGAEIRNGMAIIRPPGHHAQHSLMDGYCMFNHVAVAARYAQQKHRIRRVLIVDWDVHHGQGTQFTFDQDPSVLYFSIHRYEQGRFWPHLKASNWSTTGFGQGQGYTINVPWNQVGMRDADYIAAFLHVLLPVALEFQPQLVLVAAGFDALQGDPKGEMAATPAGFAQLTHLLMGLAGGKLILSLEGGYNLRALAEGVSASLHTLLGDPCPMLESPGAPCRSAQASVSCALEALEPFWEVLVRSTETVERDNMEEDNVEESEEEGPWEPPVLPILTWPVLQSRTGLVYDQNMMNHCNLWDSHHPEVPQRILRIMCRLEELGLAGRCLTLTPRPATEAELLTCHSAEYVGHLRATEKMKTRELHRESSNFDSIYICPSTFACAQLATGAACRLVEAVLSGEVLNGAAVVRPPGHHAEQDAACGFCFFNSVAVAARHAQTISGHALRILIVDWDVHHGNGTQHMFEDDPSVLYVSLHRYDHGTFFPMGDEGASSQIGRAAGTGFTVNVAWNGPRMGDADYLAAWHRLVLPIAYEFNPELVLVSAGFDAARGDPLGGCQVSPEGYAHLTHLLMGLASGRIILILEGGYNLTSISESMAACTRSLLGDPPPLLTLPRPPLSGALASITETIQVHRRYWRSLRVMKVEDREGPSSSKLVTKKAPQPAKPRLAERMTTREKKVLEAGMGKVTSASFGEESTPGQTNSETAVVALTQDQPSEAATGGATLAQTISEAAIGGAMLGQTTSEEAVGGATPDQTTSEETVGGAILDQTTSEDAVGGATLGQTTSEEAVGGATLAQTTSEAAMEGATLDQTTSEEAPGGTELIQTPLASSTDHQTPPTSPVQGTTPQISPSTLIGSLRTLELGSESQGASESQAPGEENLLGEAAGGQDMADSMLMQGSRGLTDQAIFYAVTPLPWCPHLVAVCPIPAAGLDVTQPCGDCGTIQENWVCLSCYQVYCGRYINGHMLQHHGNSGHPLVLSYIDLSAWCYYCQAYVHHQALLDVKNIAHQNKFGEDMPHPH

[7] = biological target: recombinant human HDAC5 (Homo sapiens, UniProt Q9UQL6); test: Recombinant human HDAC5 activity assay; assay type: biochemical; conditions: 1 mM, recombinant human isoform
Chain of recombinant human HDAC5 (Q9UQL6 whole entry, canonical isoform): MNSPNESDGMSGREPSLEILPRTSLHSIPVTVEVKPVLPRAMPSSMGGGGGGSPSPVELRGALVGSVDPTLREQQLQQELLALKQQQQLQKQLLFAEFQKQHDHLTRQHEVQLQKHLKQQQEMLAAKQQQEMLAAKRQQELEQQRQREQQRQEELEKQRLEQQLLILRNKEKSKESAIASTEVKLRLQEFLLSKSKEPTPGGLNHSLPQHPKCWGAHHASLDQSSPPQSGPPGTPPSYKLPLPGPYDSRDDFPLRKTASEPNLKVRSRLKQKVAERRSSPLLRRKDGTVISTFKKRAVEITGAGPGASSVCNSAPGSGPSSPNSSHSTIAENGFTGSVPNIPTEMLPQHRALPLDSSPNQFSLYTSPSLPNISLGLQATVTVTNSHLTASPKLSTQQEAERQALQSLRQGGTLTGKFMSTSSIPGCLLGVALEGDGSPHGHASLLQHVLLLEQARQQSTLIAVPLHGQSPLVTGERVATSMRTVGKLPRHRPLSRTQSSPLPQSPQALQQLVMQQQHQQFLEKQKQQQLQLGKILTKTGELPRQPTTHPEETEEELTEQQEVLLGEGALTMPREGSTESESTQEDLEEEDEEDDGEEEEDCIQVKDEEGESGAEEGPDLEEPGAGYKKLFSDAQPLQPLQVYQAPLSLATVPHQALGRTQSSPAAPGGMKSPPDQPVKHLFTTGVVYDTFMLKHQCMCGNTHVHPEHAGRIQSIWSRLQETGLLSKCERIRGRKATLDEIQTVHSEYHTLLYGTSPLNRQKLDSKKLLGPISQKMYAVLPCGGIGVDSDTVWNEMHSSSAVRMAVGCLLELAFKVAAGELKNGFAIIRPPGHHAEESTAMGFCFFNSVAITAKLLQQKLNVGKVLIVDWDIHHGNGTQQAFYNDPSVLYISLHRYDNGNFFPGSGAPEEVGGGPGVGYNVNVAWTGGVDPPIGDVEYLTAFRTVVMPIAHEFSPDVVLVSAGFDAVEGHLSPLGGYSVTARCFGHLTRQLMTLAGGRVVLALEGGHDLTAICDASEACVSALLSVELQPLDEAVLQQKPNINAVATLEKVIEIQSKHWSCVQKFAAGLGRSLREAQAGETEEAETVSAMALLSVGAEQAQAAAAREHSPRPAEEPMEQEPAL

[8] = biological target: T3, recombinant human HDAC8 (Homo sapiens, UniProt Q9BY41); test: Recombinant human HDAC8 activity assay; assay type: biochemical; conditions: 1 mM, recombinant human isoform
T3 sequence (Q9BY41 1-377): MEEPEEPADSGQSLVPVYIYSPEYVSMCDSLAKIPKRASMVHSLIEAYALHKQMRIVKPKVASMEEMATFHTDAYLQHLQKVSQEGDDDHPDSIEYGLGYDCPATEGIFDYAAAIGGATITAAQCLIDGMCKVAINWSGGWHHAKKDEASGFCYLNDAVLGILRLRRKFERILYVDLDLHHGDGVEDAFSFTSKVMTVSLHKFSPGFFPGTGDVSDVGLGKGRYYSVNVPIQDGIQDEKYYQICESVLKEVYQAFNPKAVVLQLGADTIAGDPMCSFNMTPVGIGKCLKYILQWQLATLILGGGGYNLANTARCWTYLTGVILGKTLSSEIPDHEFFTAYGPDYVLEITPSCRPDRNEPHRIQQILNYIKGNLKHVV

[9] = biological target: recombinant human HDAC9 (Homo sapiens, UniProt Q9UKV0); test: Recombinant human HDAC9 activity assay; assay type: biochemical; conditions: 1 mM, recombinant human isoform
Chain of recombinant human HDAC9 (Q9UKV0 whole entry, canonical isoform): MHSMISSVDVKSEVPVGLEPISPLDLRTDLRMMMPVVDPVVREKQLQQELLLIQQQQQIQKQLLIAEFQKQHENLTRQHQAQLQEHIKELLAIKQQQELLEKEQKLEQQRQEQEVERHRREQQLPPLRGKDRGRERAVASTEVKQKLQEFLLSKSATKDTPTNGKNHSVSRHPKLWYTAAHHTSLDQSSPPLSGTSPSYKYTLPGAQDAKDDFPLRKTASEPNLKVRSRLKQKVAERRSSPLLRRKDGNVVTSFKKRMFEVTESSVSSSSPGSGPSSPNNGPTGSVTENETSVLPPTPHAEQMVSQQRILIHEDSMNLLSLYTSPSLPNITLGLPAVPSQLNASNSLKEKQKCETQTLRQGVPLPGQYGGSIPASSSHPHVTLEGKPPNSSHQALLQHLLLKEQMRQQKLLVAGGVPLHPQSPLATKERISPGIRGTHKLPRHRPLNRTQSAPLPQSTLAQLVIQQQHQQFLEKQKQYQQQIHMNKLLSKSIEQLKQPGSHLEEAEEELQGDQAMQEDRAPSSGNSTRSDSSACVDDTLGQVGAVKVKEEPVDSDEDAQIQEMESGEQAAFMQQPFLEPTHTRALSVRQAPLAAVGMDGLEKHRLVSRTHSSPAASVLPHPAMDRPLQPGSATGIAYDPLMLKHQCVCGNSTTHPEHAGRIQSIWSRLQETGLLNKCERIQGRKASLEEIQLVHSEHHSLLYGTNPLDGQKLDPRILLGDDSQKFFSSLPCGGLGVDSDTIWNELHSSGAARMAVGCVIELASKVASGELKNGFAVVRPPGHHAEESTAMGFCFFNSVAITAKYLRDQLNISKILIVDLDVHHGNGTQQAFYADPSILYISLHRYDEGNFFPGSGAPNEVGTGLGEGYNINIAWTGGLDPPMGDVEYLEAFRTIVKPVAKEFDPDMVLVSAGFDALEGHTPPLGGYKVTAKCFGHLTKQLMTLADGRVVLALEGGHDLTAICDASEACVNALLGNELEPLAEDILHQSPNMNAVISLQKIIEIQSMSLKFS

[10] = test system: MCF7 cells; test: Colony formation assay in MCF7 cells; conditions: vector-transfected MCF7 cells, increasing concentrations, two weeks
[11] = test system: MCF7 cells; test: Apoptosis of MCF7 cells by FACS analysis
[12] = test system: HDACs in MCF7 cells; test: HDAC activity in lysates of MCF7 cells cultured with compound; conditions: vector-transfected MCF7 cells cultured with 1 mM compound
[13] = biological target: T4, rat Slc5a8 (Rattus norvegicus, UniProt D3Z9E5); test: Inhibition of [14C]nicotinate uptake via rat Slc5a8 expressed in HRPE cells; assay type: cell-based; conditions: read-out: inhibition of nicotinate uptake
T4 sequence (D3Z9E5 1-611): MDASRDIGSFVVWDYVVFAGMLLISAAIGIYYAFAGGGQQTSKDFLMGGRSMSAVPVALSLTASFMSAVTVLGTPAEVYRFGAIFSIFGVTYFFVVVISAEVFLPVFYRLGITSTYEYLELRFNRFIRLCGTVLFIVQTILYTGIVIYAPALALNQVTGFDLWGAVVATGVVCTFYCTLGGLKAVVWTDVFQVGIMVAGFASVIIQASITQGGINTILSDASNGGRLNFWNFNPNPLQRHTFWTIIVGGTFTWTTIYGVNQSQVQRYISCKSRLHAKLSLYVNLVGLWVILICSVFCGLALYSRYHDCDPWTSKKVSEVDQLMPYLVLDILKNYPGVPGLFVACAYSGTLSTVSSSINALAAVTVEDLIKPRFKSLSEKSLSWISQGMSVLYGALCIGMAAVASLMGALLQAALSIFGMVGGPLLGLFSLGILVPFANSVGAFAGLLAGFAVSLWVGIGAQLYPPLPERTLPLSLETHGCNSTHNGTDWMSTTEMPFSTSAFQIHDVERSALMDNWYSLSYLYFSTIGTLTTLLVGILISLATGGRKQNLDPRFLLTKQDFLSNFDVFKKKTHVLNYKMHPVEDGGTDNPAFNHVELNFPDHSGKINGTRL

[14] = biological target: T5, mouse Slc5a8 (Mus musculus, UniProt Q8BYF6); test: Inhibition of [14C]nicotinate uptake via mouse Slc5a8 expressed in HRPE cells; assay type: cell-based; conditions: read-out: inhibition of nicotinate uptake
T5 sequence (Q8BYF6 1-611): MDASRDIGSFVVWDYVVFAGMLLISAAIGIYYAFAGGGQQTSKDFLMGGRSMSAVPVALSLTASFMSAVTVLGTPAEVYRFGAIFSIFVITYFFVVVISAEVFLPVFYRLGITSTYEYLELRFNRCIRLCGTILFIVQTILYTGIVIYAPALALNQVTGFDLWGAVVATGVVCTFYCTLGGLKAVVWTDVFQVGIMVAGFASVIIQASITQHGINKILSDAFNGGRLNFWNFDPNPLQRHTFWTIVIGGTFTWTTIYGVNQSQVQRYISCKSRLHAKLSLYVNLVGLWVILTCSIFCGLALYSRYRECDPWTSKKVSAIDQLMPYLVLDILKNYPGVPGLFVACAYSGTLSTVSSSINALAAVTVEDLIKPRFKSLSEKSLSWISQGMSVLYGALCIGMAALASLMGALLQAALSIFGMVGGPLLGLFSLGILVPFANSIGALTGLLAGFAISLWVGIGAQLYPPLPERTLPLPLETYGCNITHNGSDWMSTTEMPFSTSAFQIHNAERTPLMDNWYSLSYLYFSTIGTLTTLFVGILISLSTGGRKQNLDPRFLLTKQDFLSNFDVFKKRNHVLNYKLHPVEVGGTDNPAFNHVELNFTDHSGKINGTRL

[15] = Na+-activation kinetics of 3-bromopyruvate-induced currents
[16] = MCF7 cells ectopically expressing SLC5A8, 1 mM
[17] = vector-transfected MCF7 cells, 1 mM

## O=C(O)C(=O)CBr [3-bromopyruvate]
[1]; read-out: IC50 for the inhibition of human SLC5A8 (nicotinate uptake), human SLC5A8 in HRPE cells, [14C]nicotinate 15 μM, 15 min, means ± S.E.
  IC50: 32 ± 9 µM
[2]
  inward currents in SLC5A8-expressing oocytes: induced inward currents
  K0.5 (substrate concentration for half-maximal current): 495 ± 25 µM
[2]; 1 mM, pyruvate-induced current taken as 100%, four oocytes
  current induced relative to current induced by pyruvate: approximately 50%
[2]; [15]
  Hill coefficient for the activation of transport by Na+: 1.4 ± 0.2
  K0.5 value for Na+ to activate the transport process: 32 ± 4 mM
[2]; conclusion from Na+-dependent inward currents at 1 mM
  transportable substrate or blocker of SLC5A8: transportable substrate
[3]
  inhibition of HDAC1: marked inhibition
[4]
  inhibition of HDAC3: marked inhibition
[5]
  inhibition of HDAC2: inhibited to a lesser, but significant, extent
[6]
  inhibition of HDAC6: inhibited to a lesser, but significant, extent
[7]
  effect on HDAC5: no effect
[8]
  effect on HDAC8: no effect
[9]
  effect on HDAC9: no effect
[10]
  colony formation (cell viability): affected only minimally
[11]; [16]
  apoptosis (FACS): induced marked apoptosis
[11]; MCF7 cells with HDAC1 or HDAC3 silenced by siRNA, then 3-bromopyruvate 1 mM 48 h
  apoptosis (FACS), added effect after siRNA silencing: did not have any added effect
[11]; MCF7 cells with HDAC2 silenced by siRNA, 3-bromopyruvate 1 mM 48 h
  apoptosis (FACS) after siRNA silencing: did not cause apoptosis
[11]; [17]
  apoptosis (FACS): not affected
[12]
  change in HDAC activity: no change in HDAC activity

## CC(=O)C(=O)O [pyruvate]
[13]
  inhibition at 1000 µM: 60%
[14]
  inhibition at 1000 µM: 75%
[1]
  IC50: 652 ± 139 µM
[1]; HRPE, read-out: inhibition of nicotinate uptake
  inhibition at 1000 µM: 55%
[2]
  inward currents in SLC5A8-expressing oocytes: induced inward currents
  K0.5 (substrate concentration for half-maximal current): 312 ± 16 µM
[2]; 1 mM, four oocytes, NaCl buffer
  substrate-induced current: 215 ± 45 nA
[3]
  IC50: 30 ± 14 µM
  inhibition of HDAC1: inhibited HDAC1 and HDAC3 preferentially
[4]
  IC50: 40 ± 11 µM
  inhibition of HDAC3: inhibited HDAC1 and HDAC3 preferentially
[10]
  colony formation (cell viability): affected only minimally
[11]; [16]
  apoptosis (FACS): induced marked apoptosis
[11]; [17]
  apoptosis (FACS): not affected
[12]
  change in HDAC activity: no change in HDAC activity
